According to PubChem BioAssay (NCI):
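These data come from cells grown in 96-well plates and exposed to compound for 48 hours at five concentrations. Definition used: TGI = concentration required for complete inhibition of growth.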

What was measured:
Experiment in all cases: NCI-60 cell line screen, 48 h
COLO 205 colon = test system: COLO 205 colon
DMS 273 small cell lung = test system: DMS 273 small cell lung
U251 CNS = test system: U251 CNS
HL-60(TB) leukemia = test system: HL-60(TB) leukemia
IGROV1 ovarian = test system: IGROV1 ovarian
RXF 393 renal = test system: RXF 393 renal
SK-MEL-28 melanoma = test system: SK-MEL-28 melanoma
NCI-H522 lung = test system: NCI-H522 lung
NCI-H226 lung = test system: NCI-H226 lung
M19-MEL melanoma = test system: M19-MEL melanoma
OVCAR-3 ovarian = test system: OVCAR-3 ovarian
UACC-257 melanoma = test system: UACC-257 melanoma
LOX IMVI melanoma = test system: LOX IMVI melanoma
MALME-3M melanoma = test system: MALME-3M melanoma
MOLT-4 leukemia = test system: MOLT-4 leukemia
HCT-116 colon = test system: HCT-116 colon
SF-539 CNS = test system: SF-539 CNS
SW-620 colon = test system: SW-620 colon
A549 NSCLC = test system: A549 NSCLC
HT29 colon = test system: HT29 colon
RPMI-8226 leukemia = test system: RPMI-8226 leukemia
SNB-75 CNS = test system: SNB-75 CNS
SF-295 CNS = test system: SF-295 CNS
DLD-1 colon = test system: DLD-1 colon
NCI-H23 lung = test system: NCI-H23 lung
HOP-18 NSCLC = test system: HOP-18 NSCLC
HOP-62 NSCLC = test system: HOP-62 NSCLC
OVCAR-8 ovarian = test system: OVCAR-8 ovarian
M14 melanoma = test system: M14 melanoma
SK-MEL-5 melanoma = test system: SK-MEL-5 melanoma
UO-31 renal = test system: UO-31 renal
KM20L2 colon = test system: KM20L2 colon
KM12 colon = test system: KM12 colon
786-0 renal = test system: 786-0 renal
HCT-15 colon = test system: HCT-15 colon
K-562 leukemia = test system: K-562 leukemia
SN12C renal = test system: SN12C renal
NCI-H460 lung = test system: NCI-H460 lung
CCRF-CEM leukemia = test system: CCRF-CEM leukemia
SK-OV-3 ovarian = test system: SK-OV-3 ovarian
UACC-62 melanoma = test system: UACC-62 melanoma
ACHN renal = test system: ACHN renal
DMS 114 small cell lung = test system: DMS 114 small cell lung
EKVX NSCLC = test system: EKVX NSCLC
TK-10 renal = test system: TK-10 renal
SK-MEL-2 melanoma = test system: SK-MEL-2 melanoma
HOP-92 NSCLC = test system: HOP-92 NSCLC
SNB-19 CNS = test system: SNB-19 CNS
CAKI-1 renal = test system: CAKI-1 renal
OVCAR-4 ovarian = test system: OVCAR-4 ovarian
SR leukemia = test system: SR leukemia
LXFL 529 NSCLC = test system: LXFL 529 NSCLC
A498 renal = test system: A498 renal
SF-268 CNS = test system: SF-268 CNS
HCC-2998 colon = test system: HCC-2998 colon
OVCAR-5 ovarian = test system: OVCAR-5 ovarian
SNB-78 CNS = test system: SNB-78 CNS

## Cc1ccccc1NC(=O)c1cc2cc(N=Nc3ccccc3C(=O)O)ccc2oc1=O
COLO 205 colon
  TGI: 27.8 µM
DMS 273 small cell lung
  TGI: 42.5 µM
U251 CNS
  TGI: 51.5 µM
HL-60(TB) leukemia
  TGI: 55.6 µM
IGROV1 ovarian
  TGI: 65.2 µM
RXF 393 renal
  TGI: 33.9 µM
SK-MEL-28 melanoma
  TGI: 41.2 µM
NCI-H522 lung
  TGI: 29.5 µM
NCI-H226 lung
  TGI: 44 µM
M19-MEL melanoma
  TGI: 27.3 µM
OVCAR-3 ovarian
  TGI: > 100 µM
UACC-257 melanoma
  TGI: 24.1 µM
LOX IMVI melanoma
  TGI: 41.6 µM
MALME-3M melanoma
  TGI: 25 µM
MOLT-4 leukemia
  TGI: 83.5 µM
HCT-116 colon
  TGI: 57.9 µM
SF-539 CNS
  TGI: 37.5 µM
SW-620 colon
  TGI: > 100 µM
A549 NSCLC
  TGI: > 100 µM
HT29 colon
  TGI: 38.3 µM
RPMI-8226 leukemia
  TGI: 60.2 µM
SNB-75 CNS
  TGI: 35.6 µM
SF-295 CNS
  TGI: 39.2 µM
DLD-1 colon
  TGI: 54.3 µM
NCI-H23 lung
  TGI: 12.2 µM
HOP-18 NSCLC
  TGI: 35.1 µM
HOP-62 NSCLC
  TGI: 43.3 µM
OVCAR-8 ovarian
  TGI: > 100 µM
M14 melanoma
  TGI: 37.7 µM
SK-MEL-5 melanoma
  TGI: 30.7 µM
UO-31 renal
  TGI: 50.6 µM
KM20L2 colon
  TGI: 32.1 µM
KM12 colon
  TGI: 27.8 µM
786-0 renal
  TGI: 69.6 µM
HCT-15 colon
  TGI: 36.7 µM
K-562 leukemia
  TGI: 79.5 µM
SN12C renal
  TGI: 53.3 µM
NCI-H460 lung
  TGI: 60 µM
CCRF-CEM leukemia
  TGI: 80.4 µM
SK-OV-3 ovarian
  TGI: 68.7 µM
UACC-62 melanoma
  TGI: 17.9 µM
ACHN renal
  TGI: > 100 µM
DMS 114 small cell lung
  TGI: 41.2 µM
EKVX NSCLC
  TGI: > 100 µM
TK-10 renal
  TGI: > 100 µM
SK-MEL-2 melanoma
  TGI: 47.7 µM

## NC(N)=N/N=C/c1oc(-c2ccc(S(=O)(=O)O)o2)c(-c2ccc(S(=O)(=O)O)o2)c1[N+](=O)[O-]
COLO 205 colon
  TGI: > 100 µM
DMS 273 small cell lung
  TGI: > 100 µM
HOP-92 NSCLC
  TGI: > 100 µM
U251 CNS
  TGI: > 100 µM
HL-60(TB) leukemia
  TGI: > 100 µM
IGROV1 ovarian
  TGI: > 100 µM
RXF 393 renal
  TGI: > 100 µM
SK-MEL-28 melanoma
  TGI: > 100 µM
NCI-H522 lung
  TGI: > 100 µM
SNB-19 CNS
  TGI: > 100 µM
CAKI-1 renal
  TGI: > 100 µM
NCI-H226 lung
  TGI: > 100 µM
M19-MEL melanoma
  TGI: > 100 µM
OVCAR-3 ovarian
  TGI: > 100 µM
UACC-257 melanoma
  TGI: > 100 µM
LOX IMVI melanoma
  TGI: > 100 µM
MALME-3M melanoma
  TGI: > 100 µM
MOLT-4 leukemia
  TGI: > 100 µM
HCT-116 colon
  TGI: > 100 µM
SF-539 CNS
  TGI: > 100 µM
OVCAR-4 ovarian
  TGI: > 100 µM
SW-620 colon
  TGI: > 100 µM
A549 NSCLC
  TGI: > 100 µM
HT29 colon
  TGI: > 100 µM
SNB-75 CNS
  TGI: > 100 µM
SF-295 CNS
  TGI: > 100 µM
DLD-1 colon
  TGI: > 100 µM
NCI-H23 lung
  TGI: > 100 µM
HOP-18 NSCLC
  TGI: > 100 µM
HOP-62 NSCLC
  TGI: > 100 µM
OVCAR-8 ovarian
  TGI: > 100 µM
M14 melanoma
  TGI: > 100 µM
SK-MEL-5 melanoma
  TGI: > 100 µM
UO-31 renal
  TGI: > 100 µM
KM20L2 colon
  TGI: > 100 µM
KM12 colon
  TGI: > 100 µM
786-0 renal
  TGI: > 100 µM
SR leukemia
  TGI: > 100 µM
HCT-15 colon
  TGI: > 100 µM
K-562 leukemia
  TGI: > 100 µM
LXFL 529 NSCLC
  TGI: > 100 µM
SN12C renal
  TGI: > 100 µM
NCI-H460 lung
  TGI: > 100 µM
CCRF-CEM leukemia
  TGI: > 100 µM
SK-OV-3 ovarian
  TGI: > 100 µM
UACC-62 melanoma
  TGI: > 100 µM
ACHN renal
  TGI: > 100 µM
DMS 114 small cell lung
  TGI: > 100 µM
EKVX NSCLC
  TGI: > 100 µM
TK-10 renal
  TGI: > 100 µM
A498 renal
  TGI: > 100 µM
SF-268 CNS
  TGI: > 100 µM
HCC-2998 colon
  TGI: > 100 µM
OVCAR-5 ovarian
  TGI: > 100 µM
SK-MEL-2 melanoma
  TGI: > 100 µM

## O=C1/C(=N\O)C2CCC1C2 (stereo unspecified)
COLO 205 colon
  TGI: > 100 µM
DMS 273 small cell lung
  TGI: > 100 µM
HOP-92 NSCLC
  TGI: > 100 µM
U251 CNS
  TGI: > 100 µM
HL-60(TB) leukemia
  TGI: > 100 µM
IGROV1 ovarian
  TGI: > 100 µM
RXF 393 renal
  TGI: > 100 µM
SK-MEL-28 melanoma
  TGI: > 100 µM
NCI-H522 lung
  TGI: > 100 µM
SNB-19 CNS
  TGI: > 100 µM
CAKI-1 renal
  TGI: > 100 µM
NCI-H226 lung
  TGI: > 100 µM
M19-MEL melanoma
  TGI: > 100 µM
OVCAR-3 ovarian
  TGI: > 100 µM
UACC-257 melanoma
  TGI: > 100 µM
LOX IMVI melanoma
  TGI: > 100 µM
MALME-3M melanoma
  TGI: > 100 µM
MOLT-4 leukemia
  TGI: > 100 µM
HCT-116 colon
  TGI: > 100 µM
SF-539 CNS
  TGI: > 100 µM
OVCAR-4 ovarian
  TGI: > 100 µM
SW-620 colon
  TGI: > 100 µM
A549 NSCLC
  TGI: > 100 µM
HT29 colon
  TGI: > 100 µM
RPMI-8226 leukemia
  TGI: > 100 µM
SNB-75 CNS
  TGI: > 100 µM
SF-295 CNS
  TGI: > 100 µM
NCI-H23 lung
  TGI: > 100 µM
HOP-18 NSCLC
  TGI: > 100 µM
HOP-62 NSCLC
  TGI: > 100 µM
OVCAR-8 ovarian
  TGI: > 100 µM
M14 melanoma
  TGI: > 100 µM
SNB-78 CNS
  TGI: > 100 µM
SK-MEL-5 melanoma
  TGI: > 100 µM
UO-31 renal
  TGI: > 100 µM
KM20L2 colon
  TGI: > 100 µM
KM12 colon
  TGI: > 100 µM
786-0 renal
  TGI: > 100 µM
HCT-15 colon
  TGI: > 100 µM
K-562 leukemia
  TGI: > 100 µM
LXFL 529 NSCLC
  TGI: > 100 µM
SN12C renal
  TGI: > 100 µM
NCI-H460 lung
  TGI: > 100 µM
CCRF-CEM leukemia
  TGI: > 100 µM
SK-OV-3 ovarian
  TGI: > 100 µM
UACC-62 melanoma
  TGI: > 100 µM
ACHN renal
  TGI: > 100 µM
DMS 114 small cell lung
  TGI: > 100 µM
EKVX NSCLC
  TGI: > 100 µM
TK-10 renal
  TGI: > 100 µM
A498 renal
  TGI: > 100 µM
SF-268 CNS
  TGI: > 100 µM
HCC-2998 colon
  TGI: > 100 µM
OVCAR-5 ovarian
  TGI: > 100 µM
SK-MEL-2 melanoma
  TGI: > 100 µM
